# From article PMC6625846 (ACS infectious diseases, 2019)
# How the values were obtained:
# [1] = molecular target: T1, recombinant H. influenzae IgA1P (variant A1) (Haemophilus influenzae, UniProt P44969); experiment: biochemical
# [2] = molecular target: T1, recombinant H. influenzae IgA1P (variant A1); type: biochemical; details: up to 100 μM
Compound,IC50 [1] [nM],Inhibition of recombinant H. influenzae IgA1P [2]
"Oc1nsnc1N1CCOCC1 [Compound 1a, 4-morpholin-4-yl-1,2,5-thiadiazol-3-ol]",> 100000,–
"O=c1oc(Cl)c(Cl)c2ccccc12 [DCIC, 3,4-dichloroisocoumarin]",6 ± 1,–
O=S(=O)(F)Cc1ccccc1 [PMSF],–,did not inhibit
NCCc1ccc(S(=O)(=O)F)cc1 [Pefablock],–,did not inhibit
